{"source": "patent US20200078404A1", "about": "“COMBINATION OF A CELL THERAPY AND AN IMMUNOMODULATORY COMPOUND” (Juno Therapeutics, Inc., priority 2017, published 2020)", "key": {"[1]": {"tested_on": "anti-CD19 CAR-expressing T cells", "test": "Cytokine production after anti-idiotypic antibody stimulation", "conditions": "anti-idiotypic antibody 0.3-30 μg/ml, 24 hours; Compound 1 100, 1000 nM; lenalidomide 500, 5000 nM"}, "K562-CD19 cells [2]": {"tested_on": "K562-CD19 cells", "conditions": "1-5000 nM lenalidomide, E:T 2.5:1, about 120 hours"}, "anti-BCMA CAR-T cells": {"tested_on": "anti-BCMA CAR-T cells", "test": "Prestimulation of anti-BCMA CAR-T cells on BCMA beads for 7 days: phenotype, cytolytic activity and cytokines with RPMI-8226", "format": "cell-based, human", "experimental": "Expression of CD25, PD-1, Tim3 and Lag3 on CAR T cells (using an antibody for surrogate CAR marker) cultured under the different conditions then was assessed by flow cytometry.\nPercentage killing was normalized to anti-BCMA CAR T cells prestimulated on beads in the presence of vehicle. Cytokine production was assessed by ELISA from supernatant following culture with target cells for 24 hours. Experiments were performed twice in 3 donors. […] P values were obtained by likelihood ratio tests comparing the full model with the effect of interest against the model without the effect of interest."}, "[3]": {"tested_on": "anti-CD19 CAR-expressing T cells", "test": "Cytokine production of anti-CD19 CAR-expressing T cells incubated with K562.CD19 target cells", "format": "cell-based, human", "conditions": "concentration-dependent, E:T 5:1 and 2.5:1, 24 hours, vs vehicle"}, "RPMI-8226 target cells [4]": {"tested_on": "RPMI-8226 target cells", "test": "Cytolytic activity of anti-BCMA CAR T cells co-cultured with RPMI-8226 target cells with or without lenalidomide", "format": "cell-based, human", "experimental": "[…]. […] Cells from each condition were plated in triplicate."}, "[5]": {"tested_on": "anti-CD19 CAR-expressing T cells", "test": "T cell surface markers of anti-CD19 CAR-expressing T cells incubated with K562.CD19", "format": "cell-based, human", "conditions": "all donors and E:T ratios"}, "anti-CD19 CAR+ T cells": {"tested_on": "anti-CD19 CAR+ T cells", "test": "IL-10 in supernatants of anti-CD19 CAR+ T cells incubated with K562-CD19 cells", "conditions": "E:T 3:1 or 9:1, 24 hours"}, "OPM-2": {"tested_on": "OPM-2", "conditions": "read-out: sensitive to lenalidomide; cited from earlier work"}, "K562-CD19 cells [6]": {"tested_on": "K562-CD19 cells", "test": "Cytolytic activity of restimulated anti-CD19 CAR+ T cells against K562-CD19 cells", "format": "cell-based, human", "conditions": "1 μM lenalidomide, 2nd and 4th restimulation", "experimental": "Cells from each condition were plated in triplicate. Representative cell killing observed at the 2nd and 4th restimulation for both donors is shown in FIG. 18A (as normalized to K562-CD19-Nuc-labeled cells at t=0) or in FIG. 18B (% cell killing compared to vehicle only control (set at 100%))."}, "RPMI-8226 target cells [7]": {"tested_on": "RPMI-8226 target cells", "test": "Serial restimulation on BCMA-conjugated beads, cytolytic activity against RPMI-8226 at each reset", "format": "cell-based, human", "conditions": "preincubated with 5 μM lenalidomide for 7 days or 14 days", "experimental": "Anti-BCMA CAR T cell compositions were generated from three different donors, each containing T cells expressing the same anti-BCMA CAR, thawed, and were incubated for seven days with beads (diameter about 4.5 μm) at a 1:1 ratio of beads to cells from a 50 μg/mL BCMA-conjugated bead composition generated as described in Example 9.\nCells from each condition were plated in triplicate. The % cell killing compared to vehicle only control (set at 100%) was determined."}, "anti-BCMA CAR T cells": {"tested_on": "anti-BCMA CAR T cells", "test": "Proliferation and expansion of anti-BCMA CAR T cells stimulated with BCMA-conjugated beads", "format": "cell-based, human", "conditions": "5 μM lenalidomide", "experimental": "Cryofrozen anti-BCMA CAR T cells, produced substantially as described in Example 2 and formulated at a 1:1 ratio of CD4+ and CD8+ T cells, were thawed.\nTotal cell count, monitored at day 4 (FIG. 21E) and day 7 (FIG. 21F), was increased following stimulation of anti-BCMA CAR+ T cells with beads from a 50 μg/mL BCMA-conjugated bead composition, but not 5 μg/mL BCMA-conjugated bead composition, compared to the cells present at the time of initiation of the incubation (dashed line).\nTo further assess proliferation, the cells containing anti-BCMA CAR-expressing T cells were labeled with the proliferation marker dye CELLTRACE VIOLET (CTV; ThermoFisher Scientific, Waltham Mass.) in accordance with the manufacturer's protocol prior to incubation with the BCMA-conjugated beads. Proliferation was assessed by dye dilution using flow cytometry on cells that were stimulated with beads from the 50 μg/mL BCMA-conjugated bead composition.\nFour days and seven days after addition of BCMA-conjugated beads, the incubated cells were stained with CD4 or CD8 and with an anti-EGFR antibody to determine the percentage of cells positive for EGFRt as a surrogate for CAR+ T cells. At the time of plating, 26% of the CD4+ cells expressed anti-BCMA CAR and 39% of the CD8+ cells expressed anti-BCMA CAR as determined by staining with BCMA-Fc. The percent of EGFRt+CD4+ T cells increased from about 26% at the initiation of the incubation to greater than 40% by day 4 (FIG. 21H) and greater than 60% by day 7 (FIG. 21I) when the cells were incubated in the presence of beads from a 50 μg/mL BCMA-conjugated bead composition. […] The extent of cell expansion was greatest when cells were incubated in the presence of beads from a 50 μg/mL BCMA-conjugated bead composition compared to beads from the 5 μg/mL BCMA-conjugated bead composition."}, "anti-CD19 CAR T cells": {"tested_on": "anti-CD19 CAR T cells", "test": "Proliferation of anti-CD19 CAR T cells under sub-optimal anti-CD3 stimulation (CTV dilution)", "format": "cell-based, human", "conditions": "5 μM lenalidomide, sub-optimal anti-CD3, 72 hours", "text": "The CAR contained an anti-CD19 scFv, an Ig-derived spacer, a human CD28-derived transmembrane domain, a human 4-1BB-derived intracellular signaling domain and a human CD3 zeta-derived signaling domain. The nucleic acid construct encoding the CAR also included a truncated EGFR (tEGFR) sequence for use as a transduction marker, separated from the CAR sequence by a self-cleaving T2A sequence."}, "K562.CD19 target cells": {"tested_on": "K562.CD19 target cells", "test": "Cytolytic function of anti-CD19 CAR-expressing T cells against K562.CD19 target cells", "format": "cell-based, human", "experimental": "K562.CD19 target cells were transduced with NucLight Red to permit their tracking by microscopy. Cytolytic activity was assessed by measuring the loss of viable target cells over a period of five days, as determined by red fluorescent signal (using the IncuCyte® Live Cell Analysis System, Essen Bioscience)."}, "[8]": {"conditions": "1 μM lenalidomide during the prestimulation period"}, "[9]": {"conditions": "1 μM lenalidomide, 7 days on BCMA beads"}}}
{"molecule": "Nc1cccc2c1CN(C1CCC(=O)NC1=O)C2=O", "note": "(stereo not shown) [lenalidomide, 3-(4-amino-1-oxo-1,3-dihydro-2H-isoindol-2-yl)piperidine-2,6-dione]", "values": [{"measurement": "IFN-γ, IL-2 and TNF-α production", "setting": "[1]", "value": "increased relative to the vehicle control"}, {"measurement": "CAR-mediated cytolytic activity", "setting": "K562-CD19 cells [2]", "value": "reduced CAR-mediated cytolytic activity"}, {"measurement": "cytokine production of prestimulated CAR-T cells", "setting": "anti-BCMA CAR-T cells; [8]", "value": "trend toward increased cytokine production"}, {"measurement": "cytolytic function of prestimulated CAR-T cells", "setting": "anti-BCMA CAR-T cells; [8]", "value": "preserved cytolytic function"}, {"measurement": "CD25 expression (MFI)", "setting": "anti-BCMA CAR-T cells; [9]", "value": "increasing CD25 expression"}, {"measurement": "PD-1 expression (MFI)", "setting": "anti-BCMA CAR-T cells; [9]", "value": "reduced PD-1 expression"}, {"measurement": "total cell count", "setting": "anti-BCMA CAR-T cells; 7-day period, all donors", "value": "did not alter the total cell count"}, {"measurement": "CAR+ viability", "setting": "anti-BCMA CAR-T cells; 7 days on BCMA beads, 3 healthy donors", "value": "significantly increased CAR+ viability"}, {"measurement": "percentage positive for Lag3 expression", "setting": "anti-BCMA CAR-T cells; CD4+ and CD8+ CAR+ populations, all donors", "value": "increased"}, {"measurement": "percentage of PD-1+ cells", "setting": "anti-BCMA CAR-T cells; CD4+ population", "value": "decrease in the percentage of PD-1+ cells"}, {"measurement": "surface expression of Tim3", "setting": "anti-BCMA CAR-T cells; CD8+ population, three donors", "value": "increased the surface expression of Tim3 in the CD8+ population"}, {"measurement": "cytokine production (IFN-γ, IL-2, TNF-α)", "setting": "[3]", "value": "increased"}, {"measurement": "target cell killing by anti-BCMA CAR+ T cells", "setting": "RPMI-8226 target cells [4]; 1 μM or 10 μM lenalidomide, E:T 0.3:1, day 6, vs absence of lenalidomide", "value": "greater degree of target cell killing"}, {"measurement": "time at which the effect of lenalidomide on cytolytic activity emerges", "setting": "RPMI-8226 target cells [4]; in culture", "value": "> 50", "unit": "h"}, {"measurement": "treatment effect of lenalidomide on CAR T cytolytic activity", "setting": "RPMI-8226 target cells [4]; three healthy donors and one IMiD-refractory patient, 0.01-10 μM", "value": "appeared to be donor-dependent"}, {"measurement": "expression of CD27", "setting": "[5]", "value": "downregulated in a concentration-dependent manner"}, {"measurement": "expression of CD45RO", "setting": "[5]", "value": "increased"}, {"measurement": "secretion and/or accumulation of IL-10", "setting": "anti-CD19 CAR+ T cells", "value": "dose-dependently increased secretion and/or accumulation of IL-10"}, {"measurement": "IC50", "setting": "OPM-2", "value": 37.4, "unit": "µM"}, {"measurement": "anti-CD19 CAR+ T cell cytolytic activity", "setting": "K562-CD19 cells [6]", "value": "decrease in anti-CD19 CAR+ T cell cytolytic activity"}, {"measurement": "cytolytic activity", "setting": "RPMI-8226 target cells [7]", "value": "exhibited greater cytolytic activity"}, {"measurement": "total cell count (proliferation)", "setting": "anti-BCMA CAR T cells; 50 ug beads, day 7", "value": "small increase in proliferation"}, {"measurement": "proliferation by CTV dilution", "setting": "anti-BCMA CAR T cells; 50 μg/mL beads, day 4 but not day 7", "value": "slight delay in proliferation"}, {"measurement": "extent of CAR+ T cell expansion (% EGFRt+)", "setting": "anti-BCMA CAR T cells; day 4 and day 7", "value": "did not substantially impact the extent of CAR+ T cell expansion"}, {"measurement": "proliferation of CAR+ T cells", "setting": "anti-CD19 CAR T cells", "value": "enhanced proliferation of the CAR+ T cells"}, {"measurement": "cytolytic activity of anti-CD19 CAR-expressing cells", "setting": "K562.CD19 target cells; 2.5:1 E:T ratio, some donors", "value": "slightly reduced cytolytic activity"}, {"measurement": "cytolytic activity of anti-CD19 CAR-expressing T cells", "setting": "K562.CD19 target cells; 5:1 E:T ratio, high concentrations, Donor 2, no effects with Donors 1 and 3", "value": "slight but consistent increase in cytolytic activity"}, {"measurement": "cytolytic function of anti-CD19 CAR-expressing T cells", "setting": "K562.CD19 target cells; five days, three donors", "value": "limited effect on cytolytic function"}]}
